Source: patent US10487093B2, “Heterocyclic compounds, in particular 2-oxo-4,4,5,5,6,6,7,7-octahydrobenzoxazole derivatives, and their use as antibacterial compounds” (priority 2016, dated 2019)
≈ marks a conversion by molar mass, not a printed value. Read-outs that look alike come from different tables or passages of the source.

Key:
Assay type in all cases: cell-based
[1] = test system: Clostridium difficile ATCC 700057; assay: MIC against anaerobes, agar dilution (CLSI), reference strain; conditions: Clostridioides difficile, ATCC700057, 48 h, read-out: MIC, C. difficile ATCC 700057
[2] = test system: Bacteroides fragilis ATCC 25285; assay: as above; conditions: ATCC25285, 48 h, read-out: MIC, B. fragilis ATCC 25285
[3] = test system: Bacteroides thetaiotaomicron ATCC 29741; assay: microbe, parasite or virus in culture; conditions: ATCC29741, 48 h, read-out: MIC, B. thetaiotaomicron ATCC
[4] = test system: strains of Clostridium perfringens; assay: microbe, parasite or virus in culture
[5] = test system: strains of Finegoldia magna; assay: MIC against anaerobes, agar dilution (CLSI), clinical isolates
[6] = test system: strains of Parvimonas micra; assay: as above
[7] = test system: strains of Peptoniphilus harei; assay: as above
[8] = test system: strains of Peptostreptococcus anaerobius; assay: as above
[9] = test system: strains of Propionibacterium acnes; assay: as above; conditions: Cutibacterium acnes
[10] = test system: strains of Bacteroides fragilis; assay: as above
[11] = test system: strains of Bacteroides thetaiotaomicron; assay: microbe, parasite or virus in culture
[12] = test system: strains of Prevotella bivia; assay: MIC against anaerobes, agar dilution (CLSI), clinical isolates
[13] = test system: strains of Prevotella melaninogenica; assay: as above

**Q.** Which results are given for `CN[C@H](CC(C)C)C(=O)N[C@H]1C(=O)N[C@@H](CC(N)=O)C(=O)N[C@H]2C(=O)N[C@H]3C(=O)N[C@H](C(=O)N[C@H](C(=O)O)c4cc(O)cc(O)c4-c4cc3ccc4O)[C@H](O)c3ccc(c(Cl)c3)Oc3cc2cc(c3O[C@@H]2O[C@H](CO)[C@@H](O)[C@H](O)[C@H]2O[C@H]2C[C@](C)(N)[C@H](O)[C@H](C)O2)Oc2ccc(cc2Cl)[C@H]1O` [VAN, vancomycin, reference compound]?
**A.** MIC [1]: 1 to 4 µg/mL (≈ 0.69 to 2.76 µM); MIC [2]: 16 to 64 µg/mL (≈ 11 to 44.2 µM); MIC [3]: 16 to 64 µg/mL (≈ 11 to 44.2 µM); MIC [4]: < 1 µg/mL; MIC ([5]; Finegoldia magna strain 1): A (a MIC (in μg/mL) of less than 1 is assigned the letter A); MIC ([5]; Finegoldia magna strain 2): A (a MIC (in μg/mL) of less than 1 is assigned the letter A); MIC ([5]; Finegoldia magna strain 3): A (a MIC (in μg/mL) of less than 1 is assigned the letter A); MIC ([5]; Finegoldia magna strain 4): A (a MIC (in μg/mL) of less than 1 is assigned the letter A); MIC ([5]; Finegoldia magna strain 5): A (a MIC (in μg/mL) of less than 1 is assigned the letter A); MIC ([5]; Finegoldia magna strain 6, read-out: MIC): < 1 µg/mL; MIC ([5]; Finegoldia magna strain 7): A (a MIC (in μg/mL) of less than 1 is assigned the letter A); MIC ([5]; Finegoldia magna strain 8): A (a MIC (in μg/mL) of less than 1 is assigned the letter A); MIC ([5]; Finegoldia magna strain 9): A (a MIC (in μg/mL) of less than 1 is assigned the letter A); MIC ([5]; Finegoldia magna strain 10): A (a MIC (in μg/mL) of less than 1 is assigned the letter A); MIC ([5]; Finegoldia magna strain 11): A (a MIC (in μg/mL) of less than 1 is assigned the letter A); MIC ([5]; Finegoldia magna strain 12): A (a MIC (in μg/mL) of less than 1 is assigned the letter A); MIC ([6]; Parvimonas micra strain 1): < 1 µg/mL; MIC ([6]; Parvimonas micra strain 2): < 1 µg/mL; MIC ([6]; Parvimonas micra strain 3): < 1 µg/mL; MIC ([6]; Parvimonas micra strain 4): 1 to 4 µg/mL (≈ 0.69 to 2.76 µM); MIC ([6]; Parvimonas micra strain 5): 1 to 4 µg/mL (≈ 0.69 to 2.76 µM); MIC ([6]; Parvimonas micra strain 6): < 1 µg/mL; MIC ([6]; Parvimonas micra strain 7): 1 to 4 µg/mL (≈ 0.69 to 2.76 µM); MIC ([6]; Parvimonas micra strain 8): < 1 µg/mL; MIC ([6]; Parvimonas micra strain 9): < 1 µg/mL; MIC ([6]; Parvimonas micra strain 10): < 1 µg/mL; MIC ([6]; Parvimonas micra strain 11): < 1 µg/mL; MIC ([6]; Parvimonas micra strain 12): < 1 µg/mL; MIC ([7]; Peptoniphilus harei strain 1): A (a MIC (in μg/mL) of less than 1 is assigned the letter A); MIC ([7]; Peptoniphilus harei strain 2): A (a MIC (in μg/mL) of less than 1 is assigned the letter A); MIC ([7]; Peptoniphilus harei strain 3): A (a MIC (in μg/mL) of less than 1 is assigned the letter A); MIC ([7]; Peptoniphilus harei strain 4): A (a MIC (in μg/mL) of less than 1 is assigned the letter A); MIC ([7]; Peptoniphilus harei strain 5): A (a MIC (in μg/mL) of less than 1 is assigned the letter A); MIC ([7]; Peptoniphilus harei strain 6, read-out: MIC): < 1 µg/mL; MIC ([7]; Peptoniphilus harei strain 7): A (a MIC (in μg/mL) of less than 1 is assigned the letter A); MIC ([7]; Peptoniphilus harei strain 8): A (a MIC (in μg/mL) of less than 1 is assigned the letter A); MIC ([7]; Peptoniphilus harei strain 9): A (a MIC (in μg/mL) of less than 1 is assigned the letter A); MIC ([7]; Peptoniphilus harei strain 10): A (a MIC (in μg/mL) of less than 1 is assigned the letter A); MIC ([7]; Peptoniphilus harei strain 11): A (a MIC (in μg/mL) of less than 1 is assigned the letter A); MIC ([7]; Peptoniphilus harei strain 12): A (a MIC (in μg/mL) of less than 1 is assigned the letter A); MIC ([8]; Peptostreptococcus anaerobius strain 1): < 1 µg/mL; MIC ([8]; Peptostreptococcus anaerobius strain 2): < 1 µg/mL; MIC ([8]; Peptostreptococcus anaerobius strain 3): < 1 µg/mL; MIC ([8]; Peptostreptococcus anaerobius strain 4): > 64 µg/mL; MIC ([8]; Peptostreptococcus anaerobius strain 5): < 1 µg/mL; MIC ([8]; Peptostreptococcus anaerobius strain 6): < 1 µg/mL; MIC ([8]; Peptostreptococcus anaerobius strain 7): < 1 µg/mL; MIC ([8]; Peptostreptococcus anaerobius strain 8): < 1 µg/mL; MIC ([8]; Peptostreptococcus anaerobius strain 9): < 1 µg/mL; MIC ([8]; Peptostreptococcus anaerobius strain 10): < 1 µg/mL; MIC ([9]; Propionibacterium acnes strain 1): < 1 µg/mL; MIC ([9]; Propionibacterium acnes strain 2): < 1 µg/mL; MIC ([9]; Propionibacterium acnes strain 3): < 1 µg/mL; MIC ([9]; Propionibacterium acnes strain 4): < 1 µg/mL; MIC ([9]; Propionibacterium acnes strain 5): < 1 µg/mL; MIC ([9]; Propionibacterium acnes strain 6): < 1 µg/mL; MIC ([9]; Propionibacterium acnes strain 7): < 1 µg/mL; MIC ([9]; Propionibacterium acnes strain 8): < 1 µg/mL; MIC ([9]; Propionibacterium acnes strain 9): < 1 µg/mL; MIC ([9]; Propionibacterium acnes strain 10): < 1 µg/mL; MIC ([9]; Propionibacterium acnes strain 11): < 1 µg/mL; MIC ([9]; Propionibacterium acnes strain 12): 4 to 16 µg/mL (≈ 2.76 to 11 µM); MIC ([10]; Bacteroides fragilis strain 1): 16 to 64 µg/mL (≈ 11 to 44.2 µM); MIC ([10]; Bacteroides fragilis strain 2): 16 to 64 µg/mL (≈ 11 to 44.2 µM); MIC ([10]; Bacteroides fragilis strain 3): 4 to 16 µg/mL (≈ 2.76 to 11 µM); MIC ([10]; Bacteroides fragilis strain 4): 16 to 64 µg/mL (≈ 11 to 44.2 µM); MIC ([10]; Bacteroides fragilis strain 5): 16 to 64 µg/mL (≈ 11 to 44.2 µM); MIC ([10]; Bacteroides fragilis strain 6): 4 to 16 µg/mL (≈ 2.76 to 11 µM); MIC ([10]; Bacteroides fragilis strain 7): 4 to 16 µg/mL (≈ 2.76 to 11 µM); MIC ([10]; Bacteroides fragilis strain 8): 16 to 64 µg/mL (≈ 11 to 44.2 µM); MIC ([10]; Bacteroides fragilis strain 9): 4 to 16 µg/mL (≈ 2.76 to 11 µM); MIC ([10]; Bacteroides fragilis strain 10): 16 to 64 µg/mL (≈ 11 to 44.2 µM); MIC ([10]; Bacteroides fragilis strain 11): 16 to 64 µg/mL (≈ 11 to 44.2 µM); MIC ([10]; Bacteroides fragilis strain 12): 16 to 64 µg/mL (≈ 11 to 44.2 µM); MIC ([11]; Bacteroides thetaiotaomicron strain 1, read-out: MIC): 16 to 64 µg/mL (≈ 11 to 44.2 µM); MIC ([11]; Bacteroides thetaiotaomicron strain 2, read-out: MIC): 16 to 64 µg/mL (≈ 11 to 44.2 µM); MIC ([11]; Bacteroides thetaiotaomicron strain 3, read-out: MIC): 16 to 64 µg/mL (≈ 11 to 44.2 µM); MIC ([11]; Bacteroides thetaiotaomicron strain 4, read-out: MIC): 16 to 64 µg/mL (≈ 11 to 44.2 µM); MIC ([11]; Bacteroides thetaiotaomicron strain 5, read-out: MIC): 16 to 64 µg/mL (≈ 11 to 44.2 µM); MIC ([11]; Bacteroides thetaiotaomicron strain 6, read-out: MIC): 16 to 64 µg/mL (≈ 11 to 44.2 µM); MIC ([11]; Bacteroides thetaiotaomicron strain 7, read-out: MIC): 16 to 64 µg/mL (≈ 11 to 44.2 µM); MIC ([11]; Bacteroides thetaiotaomicron strain 8, read-out: MIC): 16 to 64 µg/mL (≈ 11 to 44.2 µM); MIC ([11]; Bacteroides thetaiotaomicron strain 9, read-out: MIC): < 1 µg/mL; MIC ([11]; Bacteroides thetaiotaomicron strain 10, read-out: MIC): 16 to 64 µg/mL (≈ 11 to 44.2 µM); MIC ([11]; Bacteroides thetaiotaomicron strain 11, read-out: MIC): 16 to 64 µg/mL (≈ 11 to 44.2 µM); MIC ([12]; Prevotella bivia strain 1): > 64 µg/mL; MIC ([12]; Prevotella bivia strain 2): > 64 µg/mL; MIC ([12]; Prevotella bivia strain 3): 16 to 64 µg/mL (≈ 11 to 44.2 µM); MIC ([12]; Prevotella bivia strain 4): > 64 µg/mL; MIC ([12]; Prevotella bivia strain 5): > 64 µg/mL; MIC ([12]; Prevotella bivia strain 6): > 64 µg/mL; MIC ([12]; Prevotella bivia strain 7): > 64 µg/mL; MIC ([12]; Prevotella bivia strain 8): 16 to 64 µg/mL (≈ 11 to 44.2 µM); MIC ([12]; Prevotella bivia strain 9): > 64 µg/mL; MIC ([12]; Prevotella bivia strain 10): 16 to 64 µg/mL (≈ 11 to 44.2 µM); MIC ([13]; Prevotella melaninogenica strain 1): > 64 µg/mL; MIC ([13]; Prevotella melaninogenica strain 2): 4 to 16 µg/mL (≈ 2.76 to 11 µM); MIC ([13]; Prevotella melaninogenica strain 3): > 64 µg/mL; MIC ([13]; Prevotella melaninogenica strain 4): > 64 µg/mL; MIC ([13]; Prevotella melaninogenica strain 5): 16 to 64 µg/mL (≈ 11 to 44.2 µM); MIC ([13]; Prevotella melaninogenica strain 6): > 64 µg/mL; MIC ([13]; Prevotella melaninogenica strain 7): 16 to 64 µg/mL (≈ 11 to 44.2 µM); MIC ([13]; Prevotella melaninogenica strain 8): 4 to 16 µg/mL (≈ 2.76 to 11 µM); MIC ([13]; Prevotella melaninogenica strain 9): 4 to 16 µg/mL (≈ 2.76 to 11 µM); MIC ([13]; Prevotella melaninogenica strain 10): > 64 µg/mL; MIC ([13]; Prevotella melaninogenica strain 11): > 64 µg/mL
